Key:
TXNIP mRNA = TXNIP mRNA expression in THP1 cells under 25 mM glucose (RT-PCR); assay type: cell-based, human
Protocol: FIGS. 2A-2B. FIG. 2A: C30 and C38 inhibited TXNIP mRNA expression in THP1 cells. THP1 cells were cultured under 25 mM glucose with the indicated concentrations of compounds for 72 hours. Cells were then collected for total RNA preparation. RT-PCR was performed, and data shown are the mean±SEM from triplicates. Statistical analysis was performed using one-way ANOVA, *p<0.0001. FIG. 2B: C30 and C38 inhibited TNF-α mRNA expression in THP1 cells. THP1 cells were cultured under 25 mM glucose with various concentrations of compounds as indicated for 72 hours and collected for total RNA preparation. RT-PCR was performed, and data shown are the mean±SEM from triplicates. Statistical analysis was performed using one-way ANOVA: *<0.02; **<0.0001.
FIG. 6. C38 analogues effects on TXNIP mRNA expression in THP1 cells. THP1 cells were cultured under 25 mM glucose with 2.5 uM of compounds for 72 h. Total RNA was collected. RT-PCR was performed in triplicate and data shown are the mean±SEM. Statistical analysis was performed using one-way ANOVA: *p<0.0001.
FIG. 7. C38 and analogue E2 effects on TXNIP mRNA levels in THP cells. THP1 cells were cultured under 25 mM glucose with several concentration of C38 and E2 as indicated for 72 hours. Total RNA was prepared. RT-PCR was performed in triplicate and data shown are the mean±SEM. Statistical analysis was performed for each column vs. without compound control using one-way ANOVA: *p<0.0001.
C30 and C38 inhibited TXNIP mRNA expression in THP1 cells.
Discovery of lead compound analogues. A search of chemical libraries was performed in the interest of identifying possible lead compound analogues. Analogues to C38 were identified. To determine the properties of the analogues, we treated THP1 cells with the E batch compounds for three days, prepared RNA and measured TXNIP mRNA levels.
RNA extraction and quantitative RT-PCR. RNA was extracted using the Direct-zol™ RNA MiniPrep Plus (Zymo Research). Reverse transcription of RNA samples into cDNA was performed using the GeneAmp RNA PCR Kit (Applied Biosystems), dNTP (from Roche Applied Science), Rnase inhibitor, MULV Reverse Transcriptase and Random hexamers reagent (all from Invitrogen). Diluted cDNA was quantified using real-time PCR performed with Power SYBR Green qPCR MasterMix (Applied Biosystem) and 7500 real-time PCR system (Applied Biosystems). The HPRT1 gene was used as an internal control.

TXNIP = settings: literature (Nature Med. 2018); cited from earlier work

Compound | TXNIP mRNA expression (C38 analogues screen) (TXNIP mRNA; 2.5 uM compound, 72 h) | TXNIP mRNA levels, E2 compared with C38 (TXNIP mRNA; several concentrations, 72 hours) | expression of TXNIP (TXNIP)
COc1ccc(CCNc2ncnc3c2oc2ccccc23)cc1OC [Compound E2] | strongly inhibited TXNIP mRNA expression | moderately better than C38 | 
COc1ccc(CCN(C)CCCC(C#N)(c2ccc(OC)c(OC)c2)C(C)C)cc1OC (stereo not drawn) [Verapamil] |  |  | inhibit the expression of TXNIP
